The results in this text go back to patent US12110287B2, “Heterocyclic derivatives as Nav1.7 and Nav1.8 blockers” (RaQualia Pharma Inc., priority 2018, dated 2024).

The structures appear in SMILES notation. pKi: −log10 of the molar value.

For the experiment, the target named is Nav1.7 (Homo sapiens, UniProt Q15858). Briefly: Electrophysiology assay (whole cell patch clamp), affinity to inactivated state. On the set-up: expressed in transfected cells. Type of experiment: cell-based. The settings on record: affinity to inactivated state (Kinact), read-out: activity (Ki) against Nav1.7. The procedure:
Whole cell patch clamp recording is used to assess the efficacy or selectivity of Na (Sodium) channel blocker on human voltage gated sodium channels. Na channel expressing cells are dissociated by 0.05% Trypsin-EDTA or Accutase, and then seeded on cover glass for 2-24 hours.
Manual patch clamp recordings are conducted at rt using the voltage-clamp amplifier (Axon Instruments or HEKA electronik). Electrodes are pulled with P-97 electrode puller (Sutter Instrument). The electrode resistances are 1-3 MOhm when intercellular solution is filled. Currents are lowpass filtered between 2-5 kHz and digitally sampled at 10 kHz. […]
After whole-cell configuration is achieved, cell is monitored at least 10 minutes to allow cell dialysis with pipette solution. […]
Peak currents evoked by Test 1 and Test 2 pulses are sampled with Clampex (Axon Instruments) or Pulse+Pulse Fit (HEKA). Averaged peak currents under vehicle or test compounds are calculated from 3 data points at end of each condition.
Inhibitory effects (% inhibition) on peak currents at Test 1 or Test 2 pulse are plotted against test concentration and IC50 values at Test 1 (Closed IC50) or Test 2 (Inactivated IC50) are calculated with Hill equation, respectively. […]
After whole-cell configuration is achieved, the cell is monitored at least 10-15 minutes to allow cell dialysis with pipette solution. […]

Nav1.7, sequence (Q15858 whole entry): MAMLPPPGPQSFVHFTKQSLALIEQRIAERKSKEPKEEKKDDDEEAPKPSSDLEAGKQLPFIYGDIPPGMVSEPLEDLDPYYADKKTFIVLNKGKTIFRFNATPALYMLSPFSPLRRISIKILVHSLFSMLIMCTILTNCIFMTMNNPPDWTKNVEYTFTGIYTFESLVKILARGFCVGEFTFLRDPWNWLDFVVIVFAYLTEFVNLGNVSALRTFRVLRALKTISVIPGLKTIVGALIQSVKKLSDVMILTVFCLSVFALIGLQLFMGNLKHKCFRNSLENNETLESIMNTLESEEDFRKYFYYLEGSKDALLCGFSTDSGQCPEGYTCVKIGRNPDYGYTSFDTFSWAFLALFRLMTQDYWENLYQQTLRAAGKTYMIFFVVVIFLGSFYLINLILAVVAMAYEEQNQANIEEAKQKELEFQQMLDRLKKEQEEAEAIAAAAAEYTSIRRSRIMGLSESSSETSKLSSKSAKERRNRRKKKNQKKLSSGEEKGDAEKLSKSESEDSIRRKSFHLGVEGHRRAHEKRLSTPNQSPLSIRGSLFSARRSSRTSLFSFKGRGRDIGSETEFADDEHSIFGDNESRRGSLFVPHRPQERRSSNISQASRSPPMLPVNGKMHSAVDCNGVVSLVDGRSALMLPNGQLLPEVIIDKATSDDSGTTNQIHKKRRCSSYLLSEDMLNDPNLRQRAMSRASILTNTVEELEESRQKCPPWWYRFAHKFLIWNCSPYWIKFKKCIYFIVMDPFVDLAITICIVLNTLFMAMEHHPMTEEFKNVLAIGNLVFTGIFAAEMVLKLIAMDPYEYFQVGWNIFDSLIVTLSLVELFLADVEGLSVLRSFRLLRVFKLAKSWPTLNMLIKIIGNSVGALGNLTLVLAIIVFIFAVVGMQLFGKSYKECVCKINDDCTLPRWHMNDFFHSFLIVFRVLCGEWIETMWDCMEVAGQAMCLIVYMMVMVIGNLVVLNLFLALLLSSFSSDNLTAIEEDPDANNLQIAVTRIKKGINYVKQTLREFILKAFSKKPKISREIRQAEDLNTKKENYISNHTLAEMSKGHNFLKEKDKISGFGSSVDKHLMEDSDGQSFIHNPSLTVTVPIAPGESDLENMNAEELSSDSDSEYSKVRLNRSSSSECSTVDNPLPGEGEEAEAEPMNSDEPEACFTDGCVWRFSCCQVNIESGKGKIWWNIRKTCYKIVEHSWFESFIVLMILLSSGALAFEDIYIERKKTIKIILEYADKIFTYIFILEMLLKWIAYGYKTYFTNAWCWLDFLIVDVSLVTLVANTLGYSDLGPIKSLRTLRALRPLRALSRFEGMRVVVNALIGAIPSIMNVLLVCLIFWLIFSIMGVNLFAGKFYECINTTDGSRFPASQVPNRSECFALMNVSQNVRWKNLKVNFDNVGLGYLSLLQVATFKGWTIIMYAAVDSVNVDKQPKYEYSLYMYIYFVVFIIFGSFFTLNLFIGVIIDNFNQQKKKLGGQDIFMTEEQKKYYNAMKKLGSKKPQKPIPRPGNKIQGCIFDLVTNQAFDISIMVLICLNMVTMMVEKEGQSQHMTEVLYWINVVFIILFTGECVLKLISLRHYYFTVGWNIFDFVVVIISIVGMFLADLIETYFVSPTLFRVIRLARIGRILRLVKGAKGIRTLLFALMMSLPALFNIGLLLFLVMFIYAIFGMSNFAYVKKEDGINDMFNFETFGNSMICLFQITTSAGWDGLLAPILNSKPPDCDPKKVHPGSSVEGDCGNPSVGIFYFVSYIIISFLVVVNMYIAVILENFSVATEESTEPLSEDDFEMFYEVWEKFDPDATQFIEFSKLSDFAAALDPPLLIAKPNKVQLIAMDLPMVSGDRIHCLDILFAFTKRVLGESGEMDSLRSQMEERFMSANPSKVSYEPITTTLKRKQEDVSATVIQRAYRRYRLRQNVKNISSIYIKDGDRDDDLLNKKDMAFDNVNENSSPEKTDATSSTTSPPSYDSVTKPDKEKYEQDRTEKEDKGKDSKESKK

As to `O=C(N[C@@H]1CCCN(c2ncc(C(F)(F)F)cc2Cl)C1)c1ccnc(NC(=O)C2CC2)c1` [Example 7], the pKi (usually the negative decadic logarithm of the Ki, by convention in mol/L) is above 6.70.
